From patent publication US20110118116A1, “Azolin-2-ylamino Compounds for Combating Animal Pests” (priority 2008, published 2011)

How the values were obtained:
Type in all cases: in vivo
[1] = test system: Cowpea Aphid (Aphis craccivora); assay: Cowpea aphid test, colonized potted cowpea plants sprayed; conditions: spray, population reduction recorded after 24, 72 and 120 hours, read-out: mortality in comparison with untreated controls
Experimental: III. Cowpea Aphid (Aphis craccivora)
(§1) The active compounds were formulated in 50:50 acetone: water and 100 ppm Kinetic® surfactant.
Potted cowpea plants colonized with 100-150 aphids of various stages were sprayed after the pest population has been recorded. Population reduction was recorded after 24, 72, and 120 hours.

[2] = test system: Cotton Aphid (Aphis gossypii); assay: Cotton aphid test, cotyledons of infested cotton plants dipped; conditions: 120 h, dip, aphid mortality determined after 5 days, read-out: mortality in comparison with untreated controls
Experimental: I. Cotton Aphid (Aphis gossypii)
as §1
(§2) Cotton plants in the cotyledon stage (variety ‘Delta Pine’) are infested with approximately 100 laboratory-reared aphids by placing infested leaf sections on top of the test plants. The leaf sections are removed after 24 hours. The cotyledons of the intact plants are dipped into gradient solutions of the test compound. Aphid mortality on the treated plants, relative to mortality on check plants, is determined after 5 days.

[3] = test system: Green Peach Aphid (Myzus persicae); assay: Green peach aphid test, leaves of infested pepper plants dipped; conditions: 120 h, dip, aphid mortality determined after 5 days, read-out: mortality in comparison with untreated controls
Experimental: II. Green Peach Aphid (Myzus persicae)
as §1
as §2, with “Pepper” for “Cotton”, “2nd leaf-pair” for “cotyledon”, “‘California Wonder’)” for “‘Delta Pine’)”, “40” for “100”, “leaves” for “cotyledons”

Silverleaf Whitefly = assay: Silverleaf whitefly test, cotton cotyledons dipped, adults introduced; conditions: Bemisia argentifolii, 72 h, cotton plants, dip, mortality assessed 3 days after treatment, read-out: mortality in comparison with untreated controls
Experimental: as §1
Selected cotton plants were grown to the cotyledon state (one plant per pot). The cotyledons were dipped into the test solution to provide complete coverage of the foliage and placed in a well-vented area to dry. Each pot with treated seedling was placed in a plastic cup and 10 to 12 whitefly adults (approximately 3-5 day old) were introduced. The insects were colleted using an aspirator and a 0.6 cm, non-toxic Tygon® tubing (R-3603) connected to a barrier pipette tip. The tip, containing the collected insects, was then gently inserted into the soil containing the treated plant, allowing insects to crawl out of the tip to reach the foliage for feeding. The cups were covered with a re-usable screened lid (150 micron mesh polyester screen PeCap from Tetko Inc). Test plants were maintained in the holding room at about 25 °C and 20-40% relative humidity for 3 days avoiding direct exposure to the fluorescent light (24 hour photoperiod) to prevent trapping of heat inside the cup. Mortality was assessed 3 days after treatment of the plants.

Row | Compound | mortality at 300 ppm [1] | mortality at 300 ppm [2] | mortality at 300 ppm [3] | mortality at 300 ppm (Silverleaf Whitefly)
1 | C#CCC(NC1=NCCS1)c1cccc(C)c1C (stereo not drawn) [Example 14, (4,5-dihydro-thiazol-2-yl)-[1-(2,3-dimethyl-phenyl)-but-3-ynyl]-amine] | > 70% |  |  | 
2 | Cc1cccc(C(CC#Cc2cccc(Cl)c2)NC2=NCCS2)c1C (stereo not drawn) [Example 15, [4-(3-chloro-phenyl)-1-(2,3-dimethyl-phenyl)-but-3-ynyl]-(4,5-dihydro-thiazol-2-yl)-amine] | > 70% | > 70% | > 70% | 
3 | Cc1cccc(C#CCC(NC(=S)NCCO)c2cccc(C)c2C)c1 (stereo not drawn) [Example 2, 1-[1-(2,3-dimethyl-phenyl)-4-m-tolyl-but-3-ynyl]-3-(2-hydroxy-ethyl)-thiourea] | > 70% |  |  | 
4 | Cc1cccc(C#CCC(NC2=NCCS2)c2cccc(C)c2C)c1 (stereo not drawn) [Example 13, (4,5-dihydro-thiazol-2-yl)-[1-(2,3-dimethyl-phenyl)-4-m-tolyl-but-3-ynyl]-amine] | > 70% | > 70% | > 70% | > 70%
